Measurements from ChEMBL document CHEMBL4138123, “Design, synthesis and biological evaluation of novel pyrazolochalcones as potential modulators of PI3K/Akt/mTOR pathway and inducers of apoptosis in breast cancer cells” (Eur J Med Chem, 2017).
pIC50: −log10 of the molar value.

What was measured:
HCT-15 = test: Cytotoxicity against human HCT15 cells assessed as cell growth at 1 uM after 48 hrs by sulforhodamine B assay relative to control; format: functional; conditions: HCT-15, 48 h, read-out: Activity
SW-620 = test: Cytotoxicity against human SW620 cells assessed as cell growth at 1 uM after 48 hrs by sulforhodamine B assay relative to control; format: functional; conditions: SW-620, 48 h, read-out: Activity
HL-60(TB) = test: Cytotoxicity against human HL-60(TB) cells assessed as cell growth at 0.01 uM after 48 hrs by sulforhodamine B assay relative to control; format: functional; conditions: HL-60, 48 h, read-out: Activity
SF-268 = test: Cytotoxicity against human SF268 cells assessed as cell growth at 100 uM after 48 hrs by sulforhodamine B assay relative to control; format: functional; conditions: SF-268, 48 h, read-out: Activity
MCF7 [1] = test: Cytotoxicity against human MCF7 cells assessed as growth inhibition after 48 hrs by MTT assay; format: functional, cell-based; conditions: MCF7, 48 h
OVCAR-4 = test: Cytotoxicity against human OVCAR4 cells assessed as cell growth at 100 uM after 48 hrs by sulforhodamine B assay relative to control; format: functional; conditions: OVCAR-4, 48 h, read-out: Activity
NCI-H522 = test: Cytotoxicity against human NCI-H522 cells assessed as cell growth at 1 uM after 48 hrs by sulforhodamine B assay relative to control; format: functional; conditions: NCI-H522, 48 h, read-out: Activity
KM12 = test: Cytotoxicity against human KM12 cells assessed as cell growth at 0.1 uM after 48 hrs by sulforhodamine B assay relative to control; format: functional; conditions: KM12, 48 h, read-out: Activity
A549 = test: Cytotoxicity against human A549/ATCC cells assessed as cell growth at 1 uM after 48 hrs by sulforhodamine B assay relative to control; format: functional; conditions: A549, 48 h, read-out: Activity
UO-31 = test: Cytotoxicity against human UO31 cells assessed as cell growth at 100 uM after 48 hrs by sulforhodamine B assay relative to control; format: functional; conditions: UO-31, 48 h, read-out: Activity
Hs-578T = test: Cytotoxicity against human Hs 578T cells assessed as cell growth at 100 uM after 48 hrs by sulforhodamine B assay relative to control; format: functional; conditions: read-out: Activity
MDA-MB-435 = test: Cytotoxicity against human MDA-MB-435 cells assessed as cell growth at 0.01 uM after 48 hrs by sulforhodamine B assay relative to control; format: functional; conditions: MDA-MB-435, 48 h, read-out: Activity
NCI-H226 = test: Cytotoxicity against human NCI-H226 cells assessed as growth inhibition after 48 hrs by sulforhodamine B assay; format: functional; conditions: NCI-H226, 48 h
NCI-H460 = test: Cytotoxicity against human NCI-H460 cells assessed as growth inhibition after 48 hrs by sulforhodamine B assay; format: functional; conditions: NCI-H460, 48 h
COLO 205 = test: Cytotoxicity against human COLO205 cells assessed as cell growth at 10 uM after 48 hrs by sulforhodamine B assay relative to control; format: functional; conditions: COLO 205, 48 h, read-out: Activity
SK-MEL-5 [2] = test: Cytotoxicity against human SK-MEL-5 cells assessed as cell growth at 1 uM after 48 hrs by sulforhodamine B assay relative to control; format: functional; conditions: SK-MEL-5, 48 h, read-out: Activity
NCI/ADR-RES [3] = test: Cytotoxicity against human NCI/ADR-RES cells assessed as cell growth at 0.01 uM after 48 hrs by sulforhodamine B assay relative to control; format: functional; conditions: read-out: Activity
CCRF-CEM [4] = test: Cytotoxicity against human CCRF-CEM cells assessed as cell growth at 10 uM after 48 hrs by sulforhodamine B assay relative to control; format: functional; conditions: read-out: Activity
M14 = test: Cytotoxicity against human M14 cells assessed as growth inhibition after 48 hrs by sulforhodamine B assay; format: functional; conditions: M14, 48 h
CCRF-CEM [5] = test: Cytotoxicity against human CCRF-CEM cells assessed as cell growth at 0.1 uM after 48 hrs by sulforhodamine B assay relative to control; format: functional; conditions: read-out: Activity
SK-MEL-5 [6] = test: Cytotoxicity against human SK-MEL-5 cells assessed as growth inhibition after 48 hrs by sulforhodamine B assay; format: functional; conditions: SK-MEL-5, 48 h
HCT-116 = test: Cytotoxicity against human HCT116 cells assessed as cell growth at 1 uM after 48 hrs by sulforhodamine B assay relative to control; format: functional; conditions: HCT-116, 48 h, read-out: Activity
MDA-MB-231 = test: Cytotoxicity against human MDA-MB-231 cells assessed as cell growth at 10 uM after 48 hrs by sulforhodamine B assay relative to control; format: functional; conditions: MDA-MB-231, 48 h, read-out: Activity
SNB-19 = test: Cytotoxicity against human SNB19 cells assessed as cell growth at 10 uM after 48 hrs by sulforhodamine B assay relative to control; format: functional; conditions: SNB-19, 48 h, read-out: Activity
T47D = test: Cytotoxicity against human T47D cells assessed as cell growth at 0.01 uM after 48 hrs by sulforhodamine B assay relative to control; format: functional; conditions: read-out: Activity
U-251 [7] = test: Cytotoxicity against human U251 cells assessed as cell growth at 100 uM after 48 hrs by sulforhodamine B assay relative to control; format: functional; conditions: U-251, 48 h, read-out: Activity
OVCAR-5 [8] = test: Cytotoxicity against human OVCAR5 cells assessed as cell growth at 100 uM after 48 hrs by sulforhodamine B assay relative to control; format: functional; conditions: OVCAR-5, 48 h, read-out: Activity
PC-3 = test: Cytotoxicity against human PC3 cells assessed as cell growth at 0.01 uM after 48 hrs by sulforhodamine B assay relative to control; format: functional; conditions: PC-3, 48 h, read-out: Activity
NCI/ADR-RES [9] = test: Cytotoxicity against human NCI/ADR-RES cells assessed as cell growth at 1 uM after 48 hrs by sulforhodamine B assay relative to control; format: functional; conditions: read-out: Activity
SN12C = test: Cytotoxicity against human SN12C cells assessed as cell growth at 0.1 uM after 48 hrs by sulforhodamine B assay relative to control; format: functional; conditions: read-out: Activity
U-251 [10] = test: Cytotoxicity against human U251 cells assessed as growth inhibition after 48 hrs by sulforhodamine B assay; format: functional; conditions: U-251, 48 h
OVCAR-3 = test: Cytotoxicity against human OVCAR3 cells assessed as cell growth at 0.01 uM after 48 hrs by sulforhodamine B assay relative to control; format: functional; conditions: OVCAR-3, 48 h, read-out: Activity
MCF7 [11] = test: Cytotoxicity against human MCF7 cells assessed as cell growth at 1 uM after 48 hrs by sulforhodamine B assay relative to control; format: functional; conditions: MCF7, 48 h, read-out: Activity
786-0 = test: Cytotoxicity against human 786-0 cells assessed as cell growth at 1 uM after 48 hrs by sulforhodamine B assay relative to control; format: functional; conditions: 786-0, 48 h, read-out: Activity
OVCAR-5 [12] = test: Cytotoxicity against human OVCAR5 cells assessed as cell growth at 10 uM after 48 hrs by sulforhodamine B assay relative to control; format: functional; conditions: OVCAR-5, 48 h, read-out: Activity

COc1cc(-c2cc(/C=C/C(=O)c3ccc(F)c(F)c3)[nH]n2)cc(OC)c1OC
growth at 1 µM (HCT-15): 88%
growth at 1 µM (SW-620): 93%
growth at 0.01 µM (HL-60(TB)): 102%
growth at 100 µM (SF-268): 1%
pIC50 (MCF7 [1]): 5.60
growth at 100 µM (OVCAR-4): -3%
growth at 1 µM (NCI-H522): 71%
growth at 0.1 µM (KM12): 92%
growth at 1 µM (A549): 82%
growth at 100 µM (UO-31): -16%
growth at 100 µM (Hs-578T): -16%
growth at 0.01 µM (MDA-MB-435): 98%
LC50 (concentration killing 50% of cells) (NCI-H226): 66 µM
TGI (NCI-H226): 15.8 µM
LC50 (NCI-H460): 80.4 µM
TGI (NCI-H460): 8.24 µM
growth at 10 µM (COLO 205): -90%
growth at 1 µM (SK-MEL-5 [2]): 90%
growth at 0.01 µM (NCI/ADR-RES [3]): 100%
growth at 10 µM (CCRF-CEM [4]): 7%
LC50 (concentration killing 50% of cells) (M14): > 100 µM
TGI (M14): 11.9 µM
growth at 0.1 µM (CCRF-CEM [5]): 96%
LC50 (concentration killing 50% of cells) (SK-MEL-5 [6]): 26.7 µM
TGI (SK-MEL-5 [6]): 6.41 µM
growth at 1 µM (HCT-116): 113%
growth at 10 µM (MDA-MB-231): -38%
growth at 10 µM (SNB-19): 25%
growth at 0.01 µM (T47D): 95%
growth at 100 µM (U-251 [7]): -29%
growth at 100 µM (OVCAR-5 [8]): -24%
growth at 0.01 µM (PC-3): 98%
growth at 1 µM (NCI/ADR-RES [9]): 95%
growth at 0.1 µM (SN12C): 94%
LC50 (U-251 [10]): > 100 µM
TGI (U-251 [10]): 15.7 µM
growth at 0.01 µM (OVCAR-3): 102%
growth at 1 µM (MCF7 [11]): 99%
growth at 1 µM (786-0): 93%
growth at 10 µM (OVCAR-5 [12]): 27%

COc1cc2c(cc1OC)C(=O)/C(=C/c1cc(-c3ccc4c(c3)OCO4)n[nH]1)C2
growth at 1 µM (HCT-15): 56%
growth at 1 µM (SW-620): 66%
growth at 0.01 µM (HL-60(TB)): 90%
growth at 100 µM (SF-268): -73%
pIC50 (MCF7 [1]): 5.99
growth at 100 µM (OVCAR-4): -98%
growth at 1 µM (NCI-H522): -6%
growth at 0.1 µM (KM12): 99%
growth at 1 µM (A549): 83%
growth at 100 µM (UO-31): -95%
growth at 100 µM (Hs-578T): -15%
growth at 0.01 µM (MDA-MB-435): 102%
GI50 (NCI-H226): 1.55 µM
TGI (NCI-H226): 3.32 µM
GI50 (NCI-H460): 1.68 µM
LC50 (NCI-H460): 8.57 µM
TGI (NCI-H460): 3.79 µM
growth at 10 µM (COLO 205): -97%
growth at 1 µM (SK-MEL-5 [2]): 92%
growth at 0.01 µM (NCI/ADR-RES [3]): 101%
growth at 10 µM (CCRF-CEM [4]): -44%
GI50 (M14): 1.82 µM
LC50 (concentration killing 50% of cells) (M14): 6.34 µM
TGI (M14): 3.4 µM
growth at 0.1 µM (CCRF-CEM [5]): 96%
GI50 (SK-MEL-5 [6]): 1.89 µM
LC50 (concentration killing 50% of cells) (SK-MEL-5 [6]): 5.61 µM
TGI (SK-MEL-5 [6]): 3.06 µM
growth at 1 µM (HCT-116): 51%
growth at 10 µM (MDA-MB-231): -87%
growth at 10 µM (SNB-19): -95%
growth at 0.01 µM (T47D): 92%
growth at 100 µM (U-251 [7]): -94%
growth at 100 µM (OVCAR-5 [8]): -86%
growth at 0.01 µM (PC-3): 94%
growth at 1 µM (NCI/ADR-RES [9]): 86%
growth at 0.1 µM (SN12C): 93%
GI50 (U-251 [10]): 1.09 µM
LC50 (U-251 [10]): 4.9 µM
TGI (U-251 [10]): 2.31 µM
growth at 0.01 µM (OVCAR-3): 101%
growth at 1 µM (MCF7 [11]): 15%
growth at 1 µM (786-0): 88%
growth at 10 µM (OVCAR-5 [12]): -92%
